Assay results taken from patent US20120115827A1, “3-AMINOBENZAMIDE COMPOUNDS AND VANILLOID RECEPTOR SUBTYPE 1 (VR1) INHIBITORS” (Japan Tobacco Inc., priority 2004, published 2012).

molecular target: T1, human VR1 (Homo sapiens, UniProt Q8NER1); experiment: Inhibition of Ca2+ entry in cells caused by proton (VR1 agonist); assay type: cell-based; details: Rat glioma (C6BU1) cells stably expressing human VR1; proton stimulation to pH 5.5; Fura 2-AM fluorescence; read-out: In vitro IC50
T1 construct: expressed in transfected cells
T1 sequence (Q8NER1 whole entry): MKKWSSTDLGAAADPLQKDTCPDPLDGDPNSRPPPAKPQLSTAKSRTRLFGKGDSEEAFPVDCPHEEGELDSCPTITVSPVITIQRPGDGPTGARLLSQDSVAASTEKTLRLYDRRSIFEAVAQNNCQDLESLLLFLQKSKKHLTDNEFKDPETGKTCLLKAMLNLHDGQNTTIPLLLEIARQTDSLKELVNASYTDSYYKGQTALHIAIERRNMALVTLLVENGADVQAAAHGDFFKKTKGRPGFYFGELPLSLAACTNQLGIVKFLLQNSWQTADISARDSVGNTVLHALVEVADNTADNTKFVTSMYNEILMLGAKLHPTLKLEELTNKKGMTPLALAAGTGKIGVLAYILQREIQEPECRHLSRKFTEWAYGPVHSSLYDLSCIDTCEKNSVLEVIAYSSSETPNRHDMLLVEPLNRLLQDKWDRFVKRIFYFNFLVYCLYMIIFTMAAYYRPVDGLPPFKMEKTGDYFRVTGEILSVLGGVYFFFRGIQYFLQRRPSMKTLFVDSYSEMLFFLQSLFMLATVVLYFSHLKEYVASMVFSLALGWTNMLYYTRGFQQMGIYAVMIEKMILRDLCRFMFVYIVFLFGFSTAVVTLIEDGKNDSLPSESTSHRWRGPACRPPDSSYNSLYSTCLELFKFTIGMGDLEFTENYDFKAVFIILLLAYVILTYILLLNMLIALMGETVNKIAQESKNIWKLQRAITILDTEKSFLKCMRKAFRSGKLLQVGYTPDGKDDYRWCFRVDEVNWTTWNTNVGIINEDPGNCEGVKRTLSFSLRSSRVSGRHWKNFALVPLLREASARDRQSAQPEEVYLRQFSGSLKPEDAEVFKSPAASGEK
Experimental: The assay for evaluation of VR1 inhibition by the inventive compounds will be described below. The assay was intended to evaluate in vitro inhibition of Ca^2+ entry in cells caused by proton, one of the VR1 agonists.
Rat glioma (C6BU1) cells stably expressing human VR1 were suspended in 20 mM MES buffer (at pH 6.8, contg. 20 mM 2-morpholinoethanesulfonate (referred to as MES hereinafter), 115 mM NaCl, 5 mM KCl, 1 mM MgCl2 and 14 mM D-glucose) to make a cell density of 1×10^6 cells/mL. A fluorescent dye, Fura 2-AM solution (Dojindo Corporate, Cat. No. 343-05401) was added to the suspension to make a 5 μM concentration thereof. Further, Pluronic F-127 (Wako Pure Chemical Industries, Ltd., Cat. No. P6866) was added to make a 0.1% content thereof. Then, the suspension was incubated at 37° C. for 30 min. The cells were harvested and washed three times with 20 mM MES buffer. The cells were suspended again to make a cell density of 5×10^5 cells/mL. A 500-μL portion of the suspension was taken with a cuvette (MC MEDICAL, INC., Cat. No. SSR3121), to which […] MES buffer containing 250 mM CaCl2 was added to incorporate Ca^2+ into the cells. At the same time, 5 μL of a test compound solution (in a range of 100 μM to 10 nM in DMSO) was also added to provide a final concentration thereof in a range of 1 μM to 0.1 nM. Alternatively, 5 μl of DMSO was added as control to provide a final concentration of 1% DMSO. The suspension was set in an intracellular ionometer (CAF-110; JASCO) 10 min after those additions. The cells were stimulated with protons by addition of 60 μL of 20 mM MES buffer at pH 1.1 to the suspension to set its pH at 5.5. The activity of the test compound was determined as a difference between the minimum of fluorescence intensity before agonist stimulation and its maximum after the stimulation. The value of IC50 was derived from percentage of inhibition by the test compound compared with the control.

`O=C(Nc1ccc(Cl)cc1)c1ccc(Cl)c(N(CCO)c2ncccc2Cl)c1` [Example 36, 4-chloro-N-(4-chlorophenyl)-3-[N-(3-chloropyridin-2-yl)-N-(2-hydroxyethyl)amino]-benzamide] and `CC(C)c1ccc(NC(=O)c2ccc(Cl)c(N(CCO)c3ncccc3Cl)c2)cc1` [Example 37, 4-chloro-3-[N-(3-chloropyridin-2-yl)-N-(2-hydroxyethyl)amino]-N-(4-isopropylphenyl)-benzamide] cannot be ordered by IC50: no more than 100 nM for the first, no more than 100 nM for the second.

`O=C(Nc1ccc(Cl)c(C(F)(F)F)c1)c1ccc(Cl)c(N(CCO)c2ncccc2Cl)c1` [Example 39, 4-chloro-3-[N-(3-chloropyridin-2-yl)-N-(2-hydroxyethyl)amino]-N-(4-chloro-3-trifluoromethylphenyl)benzamide] and `O=C(Nc1ccc(C(F)(F)F)nc1)c1ccc(Cl)c(N(CCO)c2ncccc2Cl)c1` [Example 40, 4-chloro-3-[N-(3-chloropyridin-2-yl)-N-(2-hydroxyethyl)amino]-N-(2-trifluoromethylpyridine-5-yl)benzamide] cannot be ordered by IC50: no more than 100 nM for the first, no more than 100 nM for the second.

`CC(C)Oc1ccc(NC(=O)c2ccc(Cl)c(N(CCO)c3ncccc3Cl)c2)cc1` [Example 41, 4-chloro-3-[N-(3-chloropyridin-2-yl)-N-(2-hydroxyethyl)amino]-N-(4-isopropyloxyphenyl)-benzamide] and `CC(C)COc1ccc(NC(=O)c2ccc(Cl)c(N(CC(N)=O)c3ncccc3Cl)c2)cc1` [Example 61, 4-chloro-3-[N-(3-chloropyridin-2-yl)-N-(carbamoylmethyl)amino]-N-(4-isobutyloxyphenyl)-benzamide] cannot be ordered by IC50: no more than 100 nM for the first, no more than 100 nM for the second.

`O=C(Nc1ccc(N2CCCCC2)c(F)c1)c1ccc(Cl)c(N(CCO)c2ncccc2Cl)c1` [Example 43, 4-chloro-3-[N-(3-chloropyridin-2-yl)-N-(2-hydroxyethyl)amino]-N-(3-fluoro-4-piperidinylphenyl)-benzamide] and `NC(=O)CN(c1cc(C(=O)Nc2ccc(N3CCCCC3)c(F)c2)ccc1Cl)c1ncccc1Cl` [Example 62, 4-chloro-3-[N-(3-chloropyridin-2-yl)-N-(carbamoylmethyl)amino]-N-(3-fluoro-4-piperidinophenyl)-benzamide] cannot be ordered by IC50: no more than 100 nM for the first, no more than 100 nM for the second.

`CC(C)(C)c1ccc(NC(=O)c2ccc(Cl)c(N(CCCO)c3ncccc3Cl)c2)cc1` [Example 45, 4-chloro-3-[N-(3-chloropyridin-2-yl)-N-(3-hydroxypropyl)amino]-N-(4-tert-butylphenyl)-benzamide] and `CC(C)(C)c1ccc(NC(=O)c2ccc(Cl)c(N(CC(=O)O)c3ncccc3Cl)c2)cc1` [Example 46, N-(3-chloropyridin-2-yl)-N-{2-chloro-5-[N-(4-tert-butylphenyl)carbamoyl]phenyl}-aminoacetic acid] cannot be ordered by IC50: no more than 100 nM for the first, no more than 100 nM for the second.

`CC(C)(C)c1ccc(NC(=O)c2ccc(Cl)c(N(CC(N)=O)c3ncccc3Cl)c2)cc1` [Example 47, 4-chloro-3-[N-(3-chloropyridin-2-yl)-N-(carbamoylmethyl)amino]-N-(4-tert-butylphenyl)-benzamide] and `CNC(=O)CN(c1cc(C(=O)Nc2ccc(C(C)(C)C)cc2)ccc1Cl)c1ncccc1Cl` [Example 48, 4-chloro-3-[N-(3-chloropyridin-2-yl)-N-(N-methylcarbamoylmethyl)amino]-N-(4-tert-butylphenyl)-benzamide] cannot be ordered by IC50: no more than 100 nM for the first, no more than 100 nM for the second.

`CN(C)C(=O)CN(c1cc(C(=O)Nc2ccc(C(C)(C)C)cc2)ccc1Cl)c1ncccc1Cl` [Example 49, 4-chloro-3-[N-(3-chloropyridin-2-yl)-N—(N,N-dimethylcarbamoylmethyl)amino]-N-(4-tert-butylphenyl)-benzamide] and `CC(C)(C)c1ccc(NC(=O)c2ccc(Cl)c(N(CC(=O)NCCO)c3ncccc3Cl)c2)cc1` [Example 57, N-(4-tert-butylphenyl)-4-chloro-3-{N-(3-chloropyridin-2-yl)-N—[N-(2-hydroxyethyl)carbamoylmethyl]amino}-benzamide] cannot be ordered by IC50: 100 to 1000 nM for the first, no more than 100 nM for the second.

`COc1ccc(C(=O)Nc2ccc(OCC(C)C)cc2)cc1N(CCO)c1ncccc1Cl` [Example 50, 3-[N-(3-chloropyridin-2-yl)-N-(2-hydroxyethyl)amino]-N-(4-isobutyloxyphenyl)-4-methoxy-benzamide] and `CC(C)COc1ccc(NC(=O)c2cccc(N(CCO)c3ncccc3Cl)c2)cc1` [Example 52, 3-[N-(3-chloropyridin-2-yl)-N-(2-hydroxyethyl)amino]-N-(4-isobutyloxyphenyl)-benzamide] cannot be ordered by IC50: no more than 100 nM for the first, no more than 100 nM for the second.

`COc1ccc(C(=O)Nc2ccc(OCC(C)C)cc2)cc1N(CCO)c1ccc(C)cn1` [Example 51, N-(4-isobutyloxyphenyl)-4-methoxy-3-[N-(5-methylpyridin-2-yl)-N-(2-hydroxyethyl)amino]-benzamide] and `Cc1ccc(C(=O)Nc2ccc(OCC(C)C)cc2)cc1N(CC(N)=O)c1ncccc1Cl` [Example 65] cannot be ordered by IC50: no more than 100 nM for the first, no more than 100 nM for the second.

`CC(C)(C)c1ccc(NC(=O)c2cccc(N(CCO)c3ncccc3Cl)c2)cc1` [Example 53, N-(4-tert-butylphenyl)-3-[N-(3-chloropyridin-2-yl)-N-(2-hydroxyethyl)amino]-benzamide] and `O=C(Nc1ccc(C(F)(F)F)cc1)c1cccc(N(CCO)c2ncccc2Cl)c1` [Example 54, 3-[N-(3-chloropyridin-2-yl)-N-(2-hydroxyethyl)amino]-N-(4-trifluoromethylphenyl)-benzamide] cannot be ordered by IC50: no more than 100 nM for the first, no more than 100 nM for the second.

`CNC(=O)c1cc(NC(=O)c2ccc(Cl)c(N(CCO)c3ncccc3Cl)c2)ccc1OCC(C)C` [Example 55, 4-chloro-3-[N-(3-chloropyridin-2-yl)-N-(2-hydroxyethyl)amino]-N-(4-isobutyloxy-3-methylcarbamoylphenyl)-benzamide] and `CC(C)COc1ccc(NC(=O)c2ccc(Cl)c(N(CCO)c3ncccc3Cl)c2)cc1C(=O)N(C)C` [Example 56, 4-chloro-3-[N-(3-chloropyridin-2-yl)-N-(2-hydroxyethyl)amino]-N-(3-dimethylcarbamoyl-4-isobutyloxyphenyl)-benzamide] cannot be ordered by IC50: no more than 100 nM for the first, no more than 100 nM for the second.

`NC(=O)CN(c1cc(C(=O)Nc2ccc(C(F)(F)F)cc2)ccc1Cl)c1ncccc1Cl` [Example 59, 4-chloro-3-[N-(3-chloropyridin-2-yl)-N-(carbamoylmethyl)amino]-N-(4-trifluoromethylphenyl)-benzamide] and `Cc1ccc(C(=O)Nc2ccc(C(F)(F)F)cc2)cc1N(CC(N)=O)c1ncccc1Cl` [Example 63, 3-[N-(3-chloropyridin-2-yl)-N-(carbamoylmethyl)amino]-4-methyl-N-(4-trifluoromethylphenyl)-benzamide] cannot be ordered by IC50: no more than 100 nM for the first, no more than 100 nM for the second.

`NC(=O)CN(c1cc(C(=O)Nc2ccc(OC(F)(F)F)cc2)ccc1Cl)c1ncccc1Cl` [Example 60, 4-chloro-3-[N-(3-chloropyridin-2-yl)-N-(carbamoylmethyl)amino]-N-(4-trifluoromethoxyphenyl)-benzamide] and `Cc1ccc(C(=O)Nc2ccc(OC(F)(F)F)cc2)cc1N(CC(N)=O)c1ncccc1Cl` [Example 64, 3-[N-(3-chloropyridin-2-yl)-N-(carbamoylmethyl)amino]-4-methyl-N-(4-trifluoromethoxyphenyl)-benzamide] cannot be ordered by IC50: no more than 100 nM for the first, no more than 100 nM for the second.

`CNC(=O)CN(c1cc(C(=O)Nc2ccc(C(F)(F)F)cc2)ccc1Cl)c1ncccc1Cl` [Example 66, 4-chloro-3-[N-(3-chloropyridin-2-yl)-N-(N-methylcarbamoylmethyl)amino]-N-(4-trifluoromethylphenyl)-benzamide] and `NC(=O)CN(c1ccc(Cl)cn1)c1cc(C(=O)Nc2ccc(C(F)(F)F)cc2)ccc1Cl` [Example 70] cannot be ordered by IC50: no more than 100 nM for the first, no more than 100 nM for the second.

`NC(=O)CN(c1cc(C(=O)Nc2ccc(OC(F)(F)F)cc2)ccc1Cl)c1ncc(C(F)(F)F)cc1Cl` [Example 67, 4-chloro-3-[N-(3-chloro-5-trifluoromethylpyridin-2-yl)-N-(carbamoylmethyl)amino]-N-(4-trifluoromethoxyphenyl)-benzamide] and `NC(=O)CN(c1cc(C(=O)Nc2ccc(C(F)(F)F)cc2)ccc1Cl)c1ncc(C(F)(F)F)cc1Cl` [Example 68, 4-chloro-3-[N-(3-chloro-5-trifluoromethylpyridin-2-yl)-N-(carbamoylmethyl)amino]-N-(4-trifluoromethylphenyl)-benzamide] cannot be ordered by IC50: no more than 100 nM for the first, no more than 100 nM for the second.

`NC(=O)CN(c1ccc(Cl)cn1)c1cc(C(=O)Nc2ccc(OC(F)(F)F)cc2)ccc1Cl` [Example 69] and `COCc1cnc(N(CC(N)=O)c2cc(C(=O)Nc3ccc(OC(F)(F)F)cc3)ccc2Cl)c(Cl)c1` [Example 71, 4-chloro-3-[N-(3-chloro-5-methoxymethylpyridin-2-yl)-N-(carbamoylmethyl)amino]-N-(trifluoromethoxyphenyl)-benzamide] cannot be ordered by IC50: no more than 100 nM for the first, no more than 100 nM for the second.
